Assay results reported in PubChem BioAssay (NCI).
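Five compound concentrations were applied to cells in 96-well plates for 48 hours; endpoints were derived by simple linear interpolation of the resulting dose-response curve. GI50: concentration for 50% inhibition of growth. At the TGI there is no net growth.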

How the values were obtained:
Assay in all cases: NCI tumour cell line growth inhibition, 48 h
DLD-1 colon = system: DLD-1 colon
DMS 114 small cell lung = system: DMS 114 small cell lung
DMS 273 small cell lung = system: DMS 273 small cell lung
KM20L2 colon = system: KM20L2 colon
LXFL 529 NSCLC = system: LXFL 529 NSCLC
BT-549 breast = system: BT-549 breast
DU-145 prostate = system: DU-145 prostate
MDA-MB-231 breast = system: MDA-MB-231 breast
NCI/ADR-RES ovarian = system: NCI/ADR-RES ovarian
HS 578T breast = system: HS 578T breast

OC1CN(OC/C=C/c2ccccc2)CC(O)C1O (centres undefined)
TGI (DLD-1 colon): > 100 µM | TGI (DMS 114 small cell lung): > 100 µM | TGI (DMS 273 small cell lung): > 100 µM | TGI (KM20L2 colon): > 100 µM | TGI (LXFL 529 NSCLC): > 100 µM

COc1ccc2c(=O)c([Se]c3coc4cc(OC)ccc4c3=O)coc2c1
TGI (DLD-1 colon): > 100 µM | TGI (DMS 114 small cell lung): 42.9 µM | TGI (DMS 273 small cell lung): > 100 µM | TGI (KM20L2 colon): > 100 µM | TGI (LXFL 529 NSCLC): > 100 µM

NC(=O)c1ccccc1NC(=O)C(=O)C(C(=O)c1ccc2ccccc2c1)C1OC(=O)c2ccccc21 (centres undefined)
TGI (DMS 273 small cell lung): 38.5 µM | TGI (KM20L2 colon): 81.4 µM | TGI (LXFL 529 NSCLC): 21.9 µM

CCCCCCCCCCCCCCCCOC(=O)C(C(=O)OCCCCCCCCCCCCCCCC)[N+](C)(C)CCOC(C)=O
TGI (DLD-1 colon): 31.3 µM | TGI (DMS 114 small cell lung): 41.8 µM | TGI (DMS 273 small cell lung): 25 µM | TGI (KM20L2 colon): 50 µM | TGI (LXFL 529 NSCLC): 37.2 µM

COc1ccc(/C=C/c2cc(OC)c(O[Si](C)(C)C(C)(C)C)c(OC)c2)cc1
TGI (DLD-1 colon): > 100 µM | TGI (DMS 114 small cell lung): > 100 µM | TGI (DMS 273 small cell lung): > 100 µM | TGI (KM20L2 colon): > 100 µM | TGI (LXFL 529 NSCLC): > 100 µM

CN(C)CCNC(=O)c1cccc2nc3ccc4ccccc4c3nc12
TGI (DLD-1 colon): 1.46 µM | TGI (DMS 114 small cell lung): 0.293 µM | TGI (DMS 273 small cell lung): 0.246 µM

Cc1cc2c3ccccc3n(C)c2c2c1C(=O)c1ccccc1C2=O
TGI (DLD-1 colon): 31.8 µM | TGI (DMS 114 small cell lung): 46 µM | TGI (DMS 273 small cell lung): 50.1 µM | TGI (LXFL 529 NSCLC): 35.5 µM

COc1c(OC(C)=O)cc2c(OC(C)=O)c1CC(C)CC(OC)C(O)C(C)/C=C(\C)C(OC(N)=O)C(OC)/C=C\C=C(/C)C(=O)N2 (centres undefined)
TGI (DLD-1 colon): > 100 µM | TGI (DMS 114 small cell lung): > 100 µM | TGI (DMS 273 small cell lung): > 100 µM | TGI (KM20L2 colon): > 100 µM | TGI (LXFL 529 NSCLC): > 100 µM

COc1ccc(/C=C2/C(=O)N(C(=O)c3ccccc3O)N=C2C)cc1OC
TGI (BT-549 breast): > 100 µM | TGI (DLD-1 colon): > 100 µM | TGI (DMS 114 small cell lung): 3.61 µM | TGI (DU-145 prostate): > 100 µM | TGI (KM20L2 colon): > 100 µM | TGI (LXFL 529 NSCLC): > 100 µM | TGI (MDA-MB-231 breast): > 100 µM | TGI (NCI/ADR-RES ovarian): > 100 µM

O=C(c1cc2ccccc2[nH]1)C(O)(c1cc2ccccc2[nH]1)c1cc2ccccc2[nH]1
TGI (DLD-1 colon): > 246 µM | TGI (DMS 114 small cell lung): > 246 µM | TGI (DMS 273 small cell lung): > 246 µM | TGI (KM20L2 colon): > 246 µM | TGI (LXFL 529 NSCLC): > 246 µM

CCOc1ccccc1NC(=O)C(=O)CC(=O)C1=C(C)Nc2ccccc2S1
TGI (DLD-1 colon): > 100 µM | TGI (DMS 273 small cell lung): > 100 µM | TGI (KM20L2 colon): > 100 µM | TGI (LXFL 529 NSCLC): > 100 µM

O=c1[nH]c(=S)[nH]c2c1sc(=S)n2-c1ccccc1
TGI (DLD-1 colon): > 100 µM | TGI (DMS 114 small cell lung): > 100 µM | TGI (DMS 273 small cell lung): > 100 µM | TGI (KM20L2 colon): > 100 µM | TGI (LXFL 529 NSCLC): > 100 µM

Cc1ccc(SSCCCS(=O)O)cc1
TGI (DLD-1 colon): > 100 µM | TGI (DMS 114 small cell lung): 37.1 µM | TGI (DMS 273 small cell lung): 79 µM | TGI (KM20L2 colon): > 100 µM | TGI (LXFL 529 NSCLC): > 100 µM

CCC(=O)C1=C(OC(C)=O)C2Cc3c(n(C)c4ccccc34)C(C1)N2C (centres undefined)
TGI (DLD-1 colon): 74.5 µM | TGI (DMS 114 small cell lung): 58.7 µM | TGI (DMS 273 small cell lung): 41.7 µM | TGI (KM20L2 colon): > 100 µM | TGI (LXFL 529 NSCLC): > 100 µM

O=C(CC(=O)N1N=C(n2ccc3ccccc32)CC1c1ccccc1)Nc1cccc(Cl)c1 (centres undefined)
TGI (DLD-1 colon): > 100 µM | TGI (DMS 273 small cell lung): > 100 µM | TGI (KM20L2 colon): > 100 µM | TGI (LXFL 529 NSCLC): > 100 µM

CCSC1(SCC)CCN(C=NC(C)(C)C)C1
TGI (DLD-1 colon): > 100 µM | TGI (DMS 114 small cell lung): > 100 µM | TGI (DMS 273 small cell lung): > 100 µM | TGI (KM20L2 colon): > 100 µM | TGI (LXFL 529 NSCLC): > 100 µM

CCOP(=O)(CCP(=O)(OCC)OCC)OCC.C[CH2][Sn]([Cl])([Cl])[CH2]C
GI50 (BT-549 breast): 17.8 µM | TGI (BT-549 breast): 33.8 µM | GI50 (DLD-1 colon): 27.7 µM | TGI (DLD-1 colon): > 79 µM | GI50 (DMS 114 small cell lung): 16.7 µM | TGI (DMS 114 small cell lung): 34.5 µM | GI50 (DMS 273 small cell lung): > 75.1 µM | TGI (DMS 273 small cell lung): > 100 µM | GI50 (DU-145 prostate): > 100 µM | TGI (DU-145 prostate): > 100 µM | GI50 (HS 578T breast): > 100 µM | TGI (HS 578T breast): > 100 µM | GI50 (KM20L2 colon): > 68.2 µM | TGI (KM20L2 colon): > 100 µM | GI50 (LXFL 529 NSCLC): 10.7 µM | TGI (LXFL 529 NSCLC): 22.8 µM | GI50 (MDA-MB-231 breast): 25 µM | TGI (MDA-MB-231 breast): 92.2 µM | GI50 (NCI/ADR-RES ovarian): > 100 µM | TGI (NCI/ADR-RES ovarian): > 100 µM

COc1ccc(/C=C/C(=O)c2sc(N)nc2C)cc1
TGI (DLD-1 colon): > 100 µM | TGI (DMS 114 small cell lung): > 100 µM | TGI (DMS 273 small cell lung): > 100 µM | TGI (KM20L2 colon): > 100 µM

OC(c1ccccc1)(c1ccccc1)c1ccccn1
TGI (DLD-1 colon): > 100 µM | TGI (DMS 114 small cell lung): > 100 µM | TGI (DMS 273 small cell lung): > 100 µM | TGI (KM20L2 colon): > 100 µM | TGI (LXFL 529 NSCLC): > 100 µM

Nc1nnc2nc(CC(=O)/C=C/c3ccccc3)c(=O)[nH]n12
TGI (DLD-1 colon): > 100 µM | TGI (DMS 114 small cell lung): > 100 µM | TGI (DMS 273 small cell lung): > 100 µM | TGI (KM20L2 colon): > 100 µM | TGI (LXFL 529 NSCLC): > 100 µM

CC(C)c1cc(C(C)C)c(S(=O)(=O)NN)c(C(C)C)c1
TGI (DLD-1 colon): > 100 µM | TGI (DMS 114 small cell lung): > 100 µM | TGI (DMS 273 small cell lung): > 100 µM | TGI (KM20L2 colon): > 100 µM

COc1ccc(/C=C2\N=C(c3ccccc3)OC2=O)c(OCc2ccccc2)c1
TGI (DLD-1 colon): 77.2 µM | TGI (DMS 114 small cell lung): 92.3 µM | TGI (DMS 273 small cell lung): > 100 µM | TGI (KM20L2 colon): > 100 µM | TGI (LXFL 529 NSCLC): > 100 µM

C=C1C(=O)OC2CCCCC3OC3C12 (centres undefined)
TGI (DLD-1 colon): 23.4 µM | TGI (DMS 273 small cell lung): 23.8 µM | TGI (KM20L2 colon): 22.8 µM | TGI (LXFL 529 NSCLC): 20.2 µM

N=C(N)n1ncc(Cl)c(Cl)c1=O
TGI (DLD-1 colon): 5.24 µM | TGI (DMS 114 small cell lung): 3.66 µM | TGI (DMS 273 small cell lung): 4.78 µM | TGI (KM20L2 colon): 19.3 µM | TGI (LXFL 529 NSCLC): 3.31 µM

CC(=O)CC(=O)CCCC(=O)Nc1ccc(Cl)cc1C
TGI (DLD-1 colon): > 100 µM | TGI (DMS 114 small cell lung): > 100 µM | TGI (DMS 273 small cell lung): > 100 µM | TGI (KM20L2 colon): > 100 µM | TGI (LXFL 529 NSCLC): > 100 µM

CC(=O)NNc1nc(C)c(C(=O)NNC(=O)C(=O)Nc2ccc(C)c(C)c2)s1
TGI (DLD-1 colon): > 100 µM | TGI (DMS 114 small cell lung): > 100 µM | TGI (DMS 273 small cell lung): > 100 µM | TGI (KM20L2 colon): > 100 µM | TGI (LXFL 529 NSCLC): > 100 µM

CC1=C(C(=O)Nc2cccc(C(F)(F)F)c2)C(c2ccc(O)cc2)C(C(=O)Nc2cccc(C(F)(F)F)c2)=C(C)N1
TGI (DLD-1 colon): 73.3 µM | TGI (DMS 114 small cell lung): 45.8 µM | TGI (KM20L2 colon): 54.6 µM | TGI (LXFL 529 NSCLC): 55.3 µM

O=C(NCCCN1CCN(CCCNC(=O)c2cnc3ccccc3n2)CC1)c1cnc2ccccc2n1
TGI (DLD-1 colon): > 100 µM | TGI (DMS 114 small cell lung): > 100 µM | TGI (DMS 273 small cell lung): > 100 µM | TGI (KM20L2 colon): > 100 µM | TGI (LXFL 529 NSCLC): > 100 µM

CCCOc1ccc(/C(Cl)=C(\C=O)c2ccc(OC)c(OC)c2)cc1OCCC
TGI (DLD-1 colon): > 100 µM | TGI (DMS 114 small cell lung): 25.3 µM | TGI (DMS 273 small cell lung): 40.1 µM | TGI (KM20L2 colon): > 100 µM | TGI (LXFL 529 NSCLC): 80.9 µM

C/C(CN1C(=O)c2ccccc2C1=O)=N\NS(=O)(=O)c1ccccc1
TGI (DLD-1 colon): > 100 µM | TGI (DMS 114 small cell lung): > 100 µM | TGI (DMS 273 small cell lung): > 100 µM | TGI (KM20L2 colon): > 100 µM | TGI (LXFL 529 NSCLC): > 100 µM

O=[N+]([O-])c1cccc(C2SCc3nc4ccccc4n32)c1 (centres undefined)
TGI (DLD-1 colon): > 100 µM | TGI (DMS 114 small cell lung): > 100 µM | TGI (DMS 273 small cell lung): > 100 µM | TGI (KM20L2 colon): > 100 µM | TGI (LXFL 529 NSCLC): > 100 µM

Cc1ccc2nc3c(Cl)cc(=O)cc-3sc2c1
TGI (DMS 114 small cell lung): 48.1 µM | TGI (DMS 273 small cell lung): 39.3 µM | TGI (LXFL 529 NSCLC): 63.1 µM

COc1cc2cc3c4c(cc(OC)c(OC)c4c2cc1OC)CCN3C(=O)CCCC(=O)O
TGI (DLD-1 colon): > 100 µM | TGI (DMS 114 small cell lung): > 100 µM | TGI (DMS 273 small cell lung): > 100 µM | TGI (KM20L2 colon): > 100 µM | TGI (LXFL 529 NSCLC): > 100 µM

C/C(=N\NC(=O)CC(=O)Nc1ccc(C)cc1)c1cc2ccccc2oc1=O
TGI (DLD-1 colon): > 100 µM | TGI (DMS 114 small cell lung): > 100 µM | TGI (DMS 273 small cell lung): > 100 µM | TGI (KM20L2 colon): > 100 µM
